Test results: patent publication US10603385B2, “Methods and compositions for templated assembly of nucleic acid specific heterocompounds” (priority 2013, dated 2020)

Test system: Caski cells
Assay: Azide-cyclooctyne templated assembly on HPV16 E6/E7 in transfected living cells, sandwich detection of ligated product
Format: cell-based, human
Conditions: Lipofectamine 2000 transfection, 24 hours after transfection
Procedure: A set of corresponding reactants specific for the HPV16 E6/E7 gene were transfected into Caski cells to evaluate non-traceless nucleic acid templated assembly on tumor-associated targets in living cells. Sandwich enzymatic detection was used to confirm that templated assembly ligation product was preferentially formed in Caski cells rather than related cell lines lacking HPV16 E6/E7 sequence
Caski and HeLa cell lines were cultured in DMEM medium with 10% heat inactivated fetal bovine serum. For each experimental condition, 1×10^6 cells were plated in a T-25 flask 24 hours before transfection. A flask from each cell line was transfected with both templated assembly reactants (experimental), and Caski flasks were also transfected with each one of the reactants in isolation as well (negative controls).
Lipofectamine 2000 (Invitrogen) was used as the transfection reagent in accordance with the manufacturer's instructions Immediately prior to transfection, cell flasks were washed with 1×PBS and Optimem serum-free medium was added as the growth medium. […] Separately, 11 uL of Lipofectamine 2000 was incubated with 275 uL of Optimem serum-free medium for 15 minutes. […] 500 uL of the Oligo-3.1-Lipofectamine transfection solution was then dispensed to the experimental flask. […]

5′-FAM-CCAGAUGUCUUUGCU-Azide-3′ [Oligo-3.1]
Corrected Absorbance A450: 0.003
